From article PMC10607100, “Anticancer and Antiphytopathogenic Activity of Fluorinated Isatins and Their Water-Soluble Hydrazone Derivatives” (International Journal of Molecular Sciences, 2023)
Where two headings read alike, the source gives them in different places.

Legend:
Format in all cases: cell-based
Micrococcus luteus B-109 = experiment: Agar-well diffusion, bactericidal activity; conditions: Micrococcus luteus
Text: (§1) Plant pathogenic bacterial strains Micrococcus luteus B-109, Pectobacterium atrosepticum 1043, Pectobacterium carotovorum subsp. carotovorum MI, Pseudomonas fluorescens EL-2.1, and Xanthomonas campestris B-610 and the fungal strain Fusarium oxysporum IBPPM 543 were from the Collection of Rhizosphere Microorganisms, IBPPM RAS (WFCC no. 975, WDCM no. 1021) (CM IBPPM, http://collection.ibppm.ru). The pathogenic fungus Phytophthora cactorum VKM F-985, provided by the All-Russian Collection of Microorganisms (VKM) and deposited at the A.E. Favorsky Irkutsk Institute of Chemistry, SB RAS, was also used as a test organism. Bacteria M. luteus, P. carotovorum subsp. carotovorum, P. atrosepticum, and P. fluorescens were grown in a meat–peptone medium (BP), and X. campestris was grown in the medium with glucose, yeast extract, and calcium carbonate (GYCa). Solid media contained Bacto agar (18 g/L); pH was adjusted to 7.2–7.4. All bacterial cultures were grown at 28 °C. The mycelial cultures of F. oxysporum and P. cactorum were grown on a glucose–peptone–yeast (GPY) nutrient medium at 27 °C. For inoculum preparation, both fungal strains were initially grown on the agar GPY in Petri dishes and then transferred into the seed medium by punching out 5 mm of the agar plate culture with a self-designed cutter.
(§2) The antibacterial and antifungal activities of the compounds were explored using the agar-well diffusion method and the technique of mycelial radial growth inhibition. The method of diffusion in agar (measuring the diameter of growth inhibition zones) was used to determine the bactericidal activity. The 6-mm wells were made in agar medium (GYCa for Xanthomonas campestris or BP for other bacteria). Bacterial suspensions were distributed over the agar surface, and the tested compound’s solution (150 μL) was added to each well. The width of growth inhibition zones around the wells was determined after incubation for 36–40 h.

[1] = tested on: Pectobacterium atrosepticum 1043; experiment: Agar-well diffusion, bactericidal activity; conditions: Pectobacterium atrosepticum, 1043; 2 mM/L; average of 3 experiments; read-out: width of the inhibition zone (mm), P. atrosepticum
Text: as §1, §2

[2] = tested on: Pectobacterium carotovorum subsp. carotovorum MI; experiment: Agar-well diffusion, bactericidal activity; conditions: Pectobacterium carotovorum, 2 mM/L
Text: as §1, §2

[3] = tested on: Pseudomonas fluorescens EL-2.1; experiment: Agar-well diffusion, bactericidal activity; conditions: Pseudomonas fluorescens, EL2.1; 2 mM/L; average of 3 experiments; read-out: width of the inhibition zone (mm), Ps. fluorescens
Text: as §1, §2

[4] = tested on: Xanthomonas campestris B-610; experiment: Agar-well diffusion, bactericidal activity; conditions: Xanthomonas campestris
Description: Bacteria M. luteus, P. carotovorum subsp. carotovorum, P. atrosepticum, and P. fluorescens were grown in a meat–peptone medium (BP), and X. campestris was grown in the medium with glucose, yeast extract, and calcium carbonate (GYCa). Solid media contained Bacto agar (18 g/L); pH was adjusted to 7.2–7.4. […] For inoculum preparation, both fungal strains were initially grown on the agar GPY in Petri dishes and then transferred into the seed medium by punching out 5 mm of the agar plate culture with a self-designed cutter.
as §2

[5] = tested on: five representative phytopathogens; experiment: Agar-well diffusion, bactericidal activity over the panel of phytopathogens; conditions: 36 h, 2 mM solutions; dependent on the test system used; read-out: inhibition zone width (mm), range over the test systems
Text: as §1, §2

[6] = tested on: Fusarium oxysporum IBPPM 543; experiment: Mycelial radial growth inhibition; conditions: for inhibition of growth at 1 µM: 1 nmol/mL; for inhibition of growth at 1 µM / inhibition of growth at 5 µM / inhibition of growth at 20 µM / inhibition of growth at 40 µM: read-out: Inhibition value, I (%); for inhibition of growth at 5 µM: 5 nmol/mL; for inhibition of growth at 20 µM: 20 nmol/mL; for inhibition of growth at 40 µM: 40 nmol/mL
Text: as §1
(§3) For the fungicidal activity analysis, radial growth (colony diameters) of the fungi on a solid medium in the absence and in the presence of the compounds 5a–e and 7a–c solutions at various concentrations were compared. The method consisted of the following: A sterile GPY agar medium (20.0 mL), which was melted and then allowed to cool to approximately 60 °C, was mixed with the precisely measured volumes of the solutions under question and poured into a sterile Petri dish (90 mm i.d.). After the solidification of GPY agar, the media were inoculated by the fungus using 10-day-old cultures of F. oxysporum or P. cactorum. The inoculation was conducted by transferring a 5-mm (i.d.) GPY-agar block covered with mycelium to the center of the Petri dish, followed by incubation in a thermostat at 27 °C. The fungicidal effect was scored by the size of the mycelium colony on a Petri dish compared to the control without fungicidal admixtures to GPY agar. Each treatment was performed in at least four replicates in two independent experiments. The observation period ended when the control Petri dish was filled with mycelium (usually after 12 days). […] The solutions of the compounds were prepared with a concentration of 2 mmol/L (stock solution). For comparison, test compounds were also commonly applied as disinfecting agents, and antibiotics were used as a positive control.

[7] = tested on: Phytophthora cactorum VKM F-985; experiment: Mycelial radial growth inhibition; conditions: for inhibition of growth at 3 µM: 3 nmol/mL; for inhibition of growth at 3 µM / inhibition of growth at 7 µM / inhibition of growth / inhibition of growth at 40 µM: read-out: Inhibition value, I (%); for inhibition of growth at 7 µM: 7 nmol/mL; for inhibition of growth: 27 nmol/mL; for inhibition of growth at 40 µM: 40 nmol/mL
Text: as §1, §3

[8] = Fusarium oxysporum, IBPPM543, 72 h, age of the fungus 3 days
[9] = Fusarium oxysporum, IBPPM543, 120 h, age of the fungus 5 days
[10] = Fusarium oxysporum, IBPPM543, 168 h, age of the fungus 7 days
[11] = Fusarium oxysporum, IBPPM543, 216 h, age of the fungus 9 days
[12] = Phytophthora cactorum, 72 h, age of the fungus 3 days
[13] = Phytophthora cactorum, 120 h, age of the fungus 5 days
[14] = Phytophthora cactorum, 168 h, age of the fungus 7 days
[15] = Phytophthora cactorum, 216 h, age of the fungus 9 days

`Cc1ccc[n+](CC(=O)N/N=C2\C(=O)N(Cc3c(F)cccc3Cl)c3ccccc32)c1C` [Compound 7b] gave a zone of inhibition at 2000 µM (Micrococcus luteus B-109; B109, 2 mM/L, average of 3 experiments, read-out: width of the inhibition zone (mm), M. luteus) of 7 mm, a zone of inhibition at 2000 µM (Micrococcus luteus B-109; B109, Table S3, 2 mM/L, read-out: Inhibition zone width (mm), not less) of no less than 7 mm and a zone of inhibition at 2000 µM [1] of 4 mm. The zone of inhibition at 2000 µM ([2]; average of 3 experiments, read-out: width of the inhibition zone (mm), P. carotovorum subsp. carotovorum) was 5 mm, the zone of inhibition at 2000 µM ([2]; Table S3, read-out: Inhibition zone width (mm), not less) was no less than 5 mm and the zone of inhibition at 2000 µM [3] was 4.5 mm. For the same compound, the zone of inhibition at 2000 µM ([4]; B610, 2 mM/L, average of 3 experiments, read-out: width of the inhibition zone (mm), X. campestris) was 7 mm, the zone of inhibition at 2000 µM ([4]; B610, Table S3, 2 mM/L, read-out: Inhibition zone width (mm), not less) was no less than 7 mm and the zone of inhibition at 2000 µM [5] was 4 to 7 mm. It also gave an inhibition of growth at 1 µM [6, 8] of 13%, an inhibition of growth at 5 µM [6, 8] of 32% and an inhibition of growth at 20 µM [6, 8] of 35%. It also gave an inhibition of growth at 40 µM [6, 8] of 55%, an EC50 ([6]; Fusarium oxysporum, IBPPM543, 120 h, day 5, read-out: EC50, µg/mL at Day 5, F. oxysporum) of no more than 21 µg/mL and an inhibition of growth at 1 µM [6, 9] of 15%. The inhibition of growth at 5 µM [6, 9] was 29%, the inhibition of growth at 20 µM [6, 9] was 35% and the inhibition of growth at 40 µM [6, 9] was 52%. For the same compound, the inhibition of growth at 1 µM [6, 10] was 10%, the inhibition of growth at 5 µM [6, 10] was 20% and the inhibition of growth at 20 µM [6, 10] was 30%. It also gave an inhibition of growth at 40 µM [6, 10] of 43%, an inhibition of growth at 1 µM [6, 11] of 11% and an inhibition of growth at 5 µM [6, 11] of 13%. For the same compound, the inhibition of growth at 20 µM [6, 11] was 25%, the inhibition of growth at 40 µM [6, 11] was 39% and the “fungicidal action stronger than N-cetylpyridinium chloride” value ([6]; same culture age (5 days)) was 7.0 times. For the same compound, the “inhibition of Fusarium growth greater than fludioxonil” value ([6]; same culture age (5 days)) was 4.1 times, the “antagonistic effect superior to that of N-cetylpyridinium chloride” value ([7]; 5 days of growth) was 1.3 times and the “antagonistic effect superior to that of fludioxonil” value ([7]; 5 days of growth) was 1.1 times. It also gave an inhibition of growth at 3 µM [7, 12] of 15%, an inhibition of growth at 7 µM [7, 12] of 25% and an inhibition of growth [7, 12] of 30%. For the same compound, the inhibition of growth at 40 µM [7, 12] was 39%, the EC50 ([7]; Phytophthora cactorum, 120 h, day 5, read-out: EC50, µg/mL at Day 5, P. cactorum) was no more than 28 µg/mL and the inhibition of growth at 3 µM [7, 13] was 12%. The inhibition of growth at 7 µM [7, 13] was 25%, the inhibition of growth [7, 13] was 32% and the inhibition of growth at 40 µM [7, 13] was 40%. The inhibition of growth at 3 µM [7, 14] was 9%, the inhibition of growth at 7 µM [7, 14] was 22% and the inhibition of growth [7, 14] was 28%. It also gave an inhibition of growth at 40 µM [7, 14] of 37%, an inhibition of growth at 3 µM [7, 15] of 7% and an inhibition of growth at 7 µM [7, 15] of 16%. It also gave an inhibition of growth [7, 15] of 21% and an inhibition of growth at 40 µM [7, 15] of 35%.
